# According to US20240025862A1, “SUBSTITUTED N-PHENYLURACILS AND SALTS THEREOF, AND USE THEREOF AS HERBICIDAL ACTIVE SUBSTANCES” (Bayer Aktiengesellschaft, priority 2020, published 2024):
# Legend:
# Format in all cases: in vivo
# Glycine max (GLXMA) = test: Post-emergence crop plant compatibility, greenhouse pot test; conditions: 1.25 g/ha
# How it was run: (§1)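 Seeds are sown in sandy loam and grown under controlled greenhouse conditions. At the one-leaf stage (2–3 weeks), foliage is sprayed with the formulated compound in water containing 0.5% additive at 600 l/ha. About 3 weeks later, injury is rated visually in % against untreated plants.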
# [1] = tested on: Triticum aestivum (TRZAS); test: as above; conditions: vs untreated controls
# How it was run: as §1
# Setaria viridis (SETVI) = test: Post-emergence herbicidal action, greenhouse pot test (also comparative test C)
# How it was run: (§2)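 Green parts of one-leaf-stage plants are sprayed at 600 l/ha with formulated compound plus 0.5% additive, then kept under optimum greenhouse conditions for about 3 weeks. Damage is scored visually, where 100% means dead plants and 0% means no difference from controls.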
# [2] = tested on: Matricaria inodora (MATIN); test: as above
# How it was run: as §2
# [3] = tested on: Echinochloa crus-galli (ECHCG); test: as above
# How it was run: as §2
# [4] = tested on: Alopecurus myosuroides (ALOMY); test: as above; conditions: rated visually after about 3 weeks vs untreated controls, 100% = plants have died
# How it was run: as §2
# Oryza sativa (ORYSA) = test: Post-emergence crop plant compatibility, greenhouse pot test (also comparative test C); conditions: for Post-emergence action against ORYSA (crop plant compatibility): vs untreated controls
# How it was run: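 Rice and other crops sprayed post-emergence at one-leaf stage (2–3 weeks after sowing) with WP or EC formulations plus 0.5% additive at 600 l/ha water. Visual rating about 3 weeks later versus untreated controls (100% = dead, 0% = like control); suffixes a–c denote different doses.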
# Avena fatua (AVEFA) = test: Post-emergence herbicidal action, greenhouse pot test; conditions: Avena fatua, 504 h, 20 g/ha, rated visually after about 3 weeks vs untreated controls, 100% = plants have died, read-out: Post-emergence action at 20 g/ha against AVEFA in %
# How it was run: (§3)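 Greenhouse-grown weeds in sandy loam were sprayed post-emergence at the one-leaf stage, 2–3 weeks after sowing. Compounds were formulated as WP or EC in water with 0.5% additive at 600 l/ha, at rates of 20 g/ha or less. Visual rating after about 3 weeks used a scale from 0% (like untreated control) to 100% (plants dead).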
# [5] = tested on: Amaranthus retroflexus (AMARE); test: as above; conditions: rated visually after about 3 weeks vs untreated controls, 100% = plants have died
# How it was run: as §3
# [6] = tested on: Polygonum convolvulus (POLCO); test: as above
# How it was run: as §3
# Veronica persica (VERPE) = test: as above
# How it was run: as §3
# Lolium rigidum (LOLRI) = test: as above; conditions: dosage 20 g/ha
# How it was run: as §3
# Viola tricolor (VIOTR) = test: as above
# How it was run: as §3
# [7] = tested on: Abutilon theophrasti (ABUTH); test: as above; conditions: rated visually after about 3 weeks vs untreated controls, 100% = plants have died
# How it was run: as §3
# [8] = tested on: Pharbitis purpurea (PHBPU); test: as above
# How it was run: as §3
# Zea mays (ZEAMX) = test: Post-emergence crop plant compatibility, greenhouse pot test; conditions: 1.25 g/ha, vs untreated controls
# How it was run: as §1
smiles,measurement,setting,value
"CC(C#N)OC(=O)COc1ccccc1Oc1cc(-n2c(=O)cc(C(F)(F)F)n(C)c2=O)c(F)cc1Cl (centres unmarked) [I.7-177, 1-Cyanoethyl (2-{2-chloro-4-fluoro-5-[3-methyl-2,6-dioxo-4-(trifluoromethyl)-3,6-dihydropyrimidin-1(2H)-yl]phenoxy}phenoxy)acetate]",Post-emergence action against GLXMA in %,Glycine max (GLXMA),0%
same,Post-emergence action against TRZAS (crop plant compatibility),[1]; 1.25 g/ha,0%
same,pest or weed control at 20 g/ha,"Setaria viridis (SETVI); Setaria viridis, 504 h, 20 g/ha, read-out: Post-emergence action against SETVI",100%
same,pest or weed control at 1.25 g/ha,"Setaria viridis (SETVI); Setaria viridis, 504 h, dosage 1.25 g/ha, read-out: Post-emergence action against SETVI in %",100%
same,pest or weed control at 5 g/ha,"Setaria viridis (SETVI); Setaria viridis, 504 h, dosage 5 g/ha, read-out: Post-emergence action against SETVI in %",100%
same,pest or weed control at 1.25 g/ha,"[2]; Tripleurospermum inodorum, 504 h, dosage 1.25 g/ha, read-out: Post-emergence action against MATIN in %",80%
same,pest or weed control at 5 g/ha,"[2]; Tripleurospermum inodorum, 504 h, dosage 5 g/ha, read-out: Post-emergence action against MATIN in %",80%
same,pest or weed control at 20 g/ha,"[2]; Tripleurospermum inodorum, 504 h, dosage 20 g/ha, read-out: Post-emergence action against MATIN in %",80%
same,pest or weed control at 5 g/ha,"[3]; Echinochloa crus-galli, 504 h, dosage 5 g/ha, read-out: Post-emergence action against ECHCG in %",100%
same,pest or weed control at 20 g/ha,"[3]; Echinochloa crus-galli, 504 h, dosage 20 g/ha, read-out: Post-emergence action against ECHCG in %",100%
same,pest or weed control at 5 g/ha,"[4]; Alopecurus myosuroides, 504 h, 5 g/ha, read-out: Post-emergence action at 5 g/ha against ALOMY in %",90%
same,pest or weed control at 20 g/ha,"[4]; Alopecurus myosuroides, 504 h, 20 g/ha, read-out: Post-emergence action at 20 g/ha against ALOMY in %",100%
same,Post-emergence action against ORYSA (crop plant compatibility),Oryza sativa (ORYSA); 1.25 g/ha,0%
same,pest or weed control at 20 g/ha,Avena fatua (AVEFA),80%
same,pest or weed control at 1.25 g/ha,"[5]; Amaranthus retroflexus, 504 h, 1.25 g/ha, read-out: Post-emergence action at 1.25 g/ha against AMARE in %",100%
same,pest or weed control at 5 g/ha,"[5]; Amaranthus retroflexus, 504 h, 5 g/ha, read-out: Post-emergence action at 5 g/ha against AMARE in %",100%
same,pest or weed control at 20 g/ha,"[5]; Amaranthus retroflexus, 504 h, 20 g/ha, read-out: Post-emergence action at 20 g/ha against AMARE in %",100%
same,pest or weed control at 5 g/ha,"[6]; Fallopia convolvulus, 504 h, dosage 5 g/ha, read-out: Post-emergence action against POLCO in %",80%
same,pest or weed control at 20 g/ha,"[6]; Fallopia convolvulus, 504 h, dosage 20 g/ha, read-out: Post-emergence action against POLCO in %",100%
same,pest or weed control at 1.25 g/ha,"Veronica persica (VERPE); Veronica persica, 504 h, 1.25 g/ha, read-out: Post-emergence action against VERPE",90%
same,pest or weed control at 5 g/ha,"Veronica persica (VERPE); Veronica persica, 504 h, 5 g/ha, read-out: Post-emergence action against VERPE",100%
same,pest or weed control at 20 g/ha,"Veronica persica (VERPE); Veronica persica, 504 h, 20 g/ha, read-out: Post-emergence action against VERPE",100%
same,pest or weed control at 20 g/ha,"Lolium rigidum (LOLRI); Lolium rigidum, 504 h, read-out: Post-emergence action against LOLRI in %",80%
same,pest or weed control at 1.25 g/ha,"Viola tricolor (VIOTR); Viola tricolor, 504 h, 1.25 g/ha, read-out: Post-emergence action against VIOTR",100%
same,pest or weed control at 5 g/ha,"Viola tricolor (VIOTR); Viola tricolor, 504 h, 5 g/ha, read-out: Post-emergence action against VIOTR",100%
same,pest or weed control at 20 g/ha,"Viola tricolor (VIOTR); Viola tricolor, 504 h, 20 g/ha, read-out: Post-emergence action against VIOTR",100%
same,pest or weed control at 1.25 g/ha,"[7]; Abutilon theophrasti, 504 h, 1.25 g/ha, read-out: Post-emergence action at 1.25 g/ha against ABUTH in %",100%
same,pest or weed control at 5 g/ha,"[7]; Abutilon theophrasti, 504 h, 5 g/ha, read-out: Post-emergence action at 5 g/ha against ABUTH in %",100%
same,pest or weed control at 20 g/ha,"[7]; Abutilon theophrasti, 504 h, 20 g/ha, read-out: Post-emergence action at 20 g/ha against ABUTH in %",100%
same,pest or weed control at 1.25 g/ha,"[8]; Ipomoea purpurea, 504 h, dosage 1.25 g/ha, read-out: Post-emergence action against PHBPU in %",90%
same,pest or weed control at 5 g/ha,"[8]; Ipomoea purpurea, 504 h, dosage 5 g/ha, read-out: Post-emergence action against PHBPU in %",100%
same,pest or weed control at 20 g/ha,"[8]; Ipomoea purpurea, 504 h, dosage 20 g/ha, read-out: Post-emergence action against PHBPU in %",100%
CCOCCOC(=O)COc1ccccc1Oc1cc(-n2c(=O)cc(C(F)(F)F)n(C)c2=O)c(F)cc1[N+](=O)[O-] [I.6-2],Post-emergence action against GLXMA in %,Glycine max (GLXMA),20%
same,Post-emergence action against TRZAS (crop plant compatibility),[1]; 1.25 g/ha,20%
same,Post-emergence action against TRZAS (crop plant compatibility),[1]; 5 g/ha,20%
same,Post-emergence action against ZEAMX (crop plant compatibility),Zea mays (ZEAMX),20%
same,Post-emergence action against SETVI,Setaria viridis (SETVI); 20 g/ha,100%
same,Post-emergence action against SETVI in %,Setaria viridis (SETVI); dosage 1.25 g/ha,100%
same,Post-emergence action against SETVI in %,Setaria viridis (SETVI); dosage 5 g/ha,100%
same,Post-emergence action against MATIN in %,[2]; dosage 5 g/ha,90%
same,Post-emergence action against MATIN in %,[2]; dosage 20 g/ha,100%
same,Post-emergence action against ECHCG in %,[3]; dosage 5 g/ha,90%
same,Post-emergence action against ECHCG in %,[3]; dosage 20 g/ha,100%
same,Post-emergence action at 20 g/ha against ALOMY in %,[4]; 20 g/ha,90%
same,Post-emergence action against ORYSA (crop plant compatibility),Oryza sativa (ORYSA); 1.25 g/ha,0%
same,Post-emergence action against ORYSA (crop plant compatibility),Oryza sativa (ORYSA); 5 g/ha,0%
same,Post-emergence action against ORYSA in %,"Oryza sativa (ORYSA); 20 g/ha, crop plant compatibility",20%
same,Post-emergence action at 1.25 g/ha against AMARE in %,[5]; 1.25 g/ha,100%
same,Post-emergence action at 5 g/ha against AMARE in %,[5]; 5 g/ha,100%
same,Post-emergence action at 20 g/ha against AMARE in %,[5]; 20 g/ha,100%
same,Post-emergence action against POLCO in %,[6]; dosage 5 g/ha,100%
same,Post-emergence action against POLCO in %,[6]; dosage 20 g/ha,100%
same,Post-emergence action against VERPE,Veronica persica (VERPE); 1.25 g/ha,100%
same,Post-emergence action against VERPE,Veronica persica (VERPE); 5 g/ha,100%
same,Post-emergence action against VERPE,Veronica persica (VERPE); 20 g/ha,100%
same,Post-emergence action against LOLRI in %,Lolium rigidum (LOLRI),90%
same,Post-emergence action against VIOTR,Viola tricolor (VIOTR); 1.25 g/ha,100%
same,Post-emergence action against VIOTR,Viola tricolor (VIOTR); 5 g/ha,100%
same,Post-emergence action against VIOTR,Viola tricolor (VIOTR); 20 g/ha,100%
same,Post-emergence action at 1.25 g/ha against ABUTH in %,[7]; 1.25 g/ha,100%
same,Post-emergence action at 5 g/ha against ABUTH in %,[7]; 5 g/ha,100%
same,Post-emergence action at 20 g/ha against ABUTH in %,[7]; 20 g/ha,100%
same,Post-emergence action against PHBPU in %,[8]; dosage 1.25 g/ha,100%
same,Post-emergence action against PHBPU in %,[8]; dosage 5 g/ha,100%
same,Post-emergence action against PHBPU in %,[8]; dosage 20 g/ha,100%
